Test results taken from patent US20040156869A1, “2-substituted quinazolin-4-ylamine analogues” (Neurogen Corporation, priority 2002, published 2004).

biological target: human capsaicin receptor (VR1) (Homo sapiens, UniProt Q8NER1); experiment: Capsaicin receptor binding assay ([3H]RTX competition, VR1-transfected HEK293 membranes)
Sequence (Q8NER1 whole entry): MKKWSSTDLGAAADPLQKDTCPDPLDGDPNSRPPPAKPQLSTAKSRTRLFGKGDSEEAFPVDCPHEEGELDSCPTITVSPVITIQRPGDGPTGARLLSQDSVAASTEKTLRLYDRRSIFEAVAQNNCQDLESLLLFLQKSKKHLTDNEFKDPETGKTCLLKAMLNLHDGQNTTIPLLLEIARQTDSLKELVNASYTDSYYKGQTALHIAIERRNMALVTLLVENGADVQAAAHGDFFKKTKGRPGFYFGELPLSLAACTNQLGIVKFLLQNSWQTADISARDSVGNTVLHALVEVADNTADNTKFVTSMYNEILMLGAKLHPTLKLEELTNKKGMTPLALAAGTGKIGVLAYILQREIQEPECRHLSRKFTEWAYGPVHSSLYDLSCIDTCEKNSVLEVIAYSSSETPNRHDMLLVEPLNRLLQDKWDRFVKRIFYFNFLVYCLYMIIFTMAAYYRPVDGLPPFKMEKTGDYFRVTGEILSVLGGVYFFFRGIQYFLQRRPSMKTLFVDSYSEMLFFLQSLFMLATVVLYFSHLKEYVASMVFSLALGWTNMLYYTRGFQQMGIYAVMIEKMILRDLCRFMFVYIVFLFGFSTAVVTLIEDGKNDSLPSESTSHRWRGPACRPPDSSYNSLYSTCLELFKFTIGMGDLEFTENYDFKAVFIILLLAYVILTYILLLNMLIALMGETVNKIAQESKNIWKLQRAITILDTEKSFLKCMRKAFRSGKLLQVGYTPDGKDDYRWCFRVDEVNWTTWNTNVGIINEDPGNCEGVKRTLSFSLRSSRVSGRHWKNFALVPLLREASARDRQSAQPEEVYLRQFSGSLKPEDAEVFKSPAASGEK

Ki, < 1 µM:
OC1CCN(Cc2nc(Nc3ccc(C(F)(F)F)cc3)c3ccc(-c4ncccc4C(F)(F)F)cc3n2)CC1 [Compound 496, 1-[4-(4-Trifluoromethyl-phenylamino)-7-(3-trifluoromethyl-pyridin-2-yl)-quinazolin-2-ylmethyl]-piperidin-4-ol]
OCC1CCCCN1Cc1nc(Nc2ccc(C(F)(F)F)cc2)c2ccc(-c3ncccc3C(F)(F)F)cc2n1 (stereo not drawn) [Compound 497, {1-[4-(4-Trifluoromethyl-phenylamino)-7-(3-trifluoromethyl-pyridin-2-yl)-quinazolin-2-ylmethyl]piperidin-2-yl}-methanol]
CC1CCCN(Cc2nc(Nc3ccc(C(F)(F)F)cc3)c3ccc(-c4ncccc4C(F)(F)F)cc3n2)C1 (stereo not drawn) [Compound 498, [2-(3-Methyl-piperidin-1-ylmethyl)-7-(3-yl)-quinazolin-4-yl]-(4-trifluoromethyl-phenyl)-amine]
OC1CCCN(Cc2nc(Nc3ccc(C(F)(F)F)cc3)c3ccc(-c4ncccc4C(F)(F)F)cc3n2)C1 (stereo not drawn) [Compound 499, 1-[4-(4-Trifluoromethyl-phenylamino)-7-(3-trifluoromethyl-pyridin-2-yl)-quinazolin-2-ylmethyl]-piperidin-3-ol]
NC(=O)C1CCN(Cc2nc(Nc3ccc(C(F)(F)F)cc3)c3ccc(-c4ncccc4C(F)(F)F)cc3n2)CC1 [Compound 500, 1-[4-(4-Trifluoromethyl-phenylamino)-7-(3-trifluoromethyl-pyridin-2-yl)-quinazolin-2-ylmethyl]-piperidine-4-carboxylic acid amide]
CCOC(=O)C1CCCN(Cc2nc(Nc3ccc(C(F)(F)F)cc3)c3ccc(-c4ncccc4C(F)(F)F)cc3n2)C1 (stereo not drawn) [Compound 501, 1-[4-(4-Trifluoromethyl-phenylamino)-7-(3-trifluoromethyl-pyridin-2-yl)-quinazolin-2-ylmethyl]-piperidine-3-carboxylic acid ethyl ester]
OCC1CCCN(Cc2nc(Nc3ccc(C(F)(F)F)cc3)c3ccc(-c4ncccc4C(F)(F)F)cc3n2)C1 (stereo not drawn) [Compound 502, {1-[4-(4-Trifluoromethyl-phenylamino)-7-(3-trifluoromethyl-pyridin-2-yl)-quinazolin-2-ylmethyl]-piperidin-3-yl}-methanol]
CCOC(=O)C1CCN(Cc2nc(Nc3ccc(C(F)(F)F)cc3)c3ccc(-c4ncccc4C(F)(F)F)cc3n2)CC1 [Compound 503, 1-[4-(4-Trifluoromethyl-phenylamino)-7-(3-trifluoromethyl-pyridin-2-yl)-quinazolin-2-ylmethyl]-piper idine-4-carboxylic acid ethyl ester]
OCCN1CCN(Cc2nc(Nc3ccc(C(F)(F)F)cc3)c3ccc(-c4ncccc4C(F)(F)F)cc3n2)CC1 [Compound 504, 2-{4-[4-(4-Trifluoromethyl-phenylamino)-7-(3-trifluoromethyl-pyridin-2-yl)-quinazolin-2-ylmethyl]-piperazin-1-yl}-ethanol]
CS(=O)(=O)NCc1nc(Nc2ccc(C(F)(F)F)cc2)c2ccc(-c3ncccc3C(F)(F)F)cc2n1 [Compound 506, N-[4-(4-Trifluoromethyl-phenylamino)-7-(3-trifluoromethyl-pyridin-2-yl)-quinazolin-2-ylmethyl]-methanesulfonamide]
FC(F)(F)c1ccc(Nc2nc(-c3ccncc3)nc3cc(-c4ncccc4C(F)(F)F)ccc23)cc1 [Compound 507, [2-Pyridin-4-yl-7-(3-trifluoromethyl-pyridin-2-yl)-quinazolin-4-yl]-(4-trifluoromethyl-phenyl)-amine]
FC(F)(F)c1ccc(Nc2nc(-c3cccnc3)nc3cc(-c4ncccc4C(F)(F)F)ccc23)cc1 [Compound 508, [2-Pyridin-3-yl-7-(3-trifluoromethyl-pyridin-2-yl)-quinazolin-4-yl]-(4-trifluoromethyl-phenyl)-amine]
COc1ccc(-c2nc(Nc3ccc(C(F)(F)F)cc3)c3ccc(-c4ncccc4C(F)(F)F)cc3n2)cn1 [Compound 509, [2-(6-Methoxy-pyridin-3-yl)-7-(3-trifluoromethyl-pyridin-2-yl)-quinazolin-4-yl]-(4-trifluoromethyl-phenyl)-amine]
FC(F)(F)c1ccc(Nc2nc(C3N=NN=N3)nc3cc(-c4ncccc4C(F)(F)F)ccc23)cc1 [Compound 510, [2-(5H-Tetrazol-5-yl)-7-(3-trifluoromethyl-pyridin-2-yl)-quinazolin-4-yl]-(4-trifluoromethyl-phenyl)-amine]
CC(C)N1CCN(Cc2nc(Nc3ccc(C(F)(F)F)cc3)c3ccc(-c4ncccc4C(F)(F)F)cc3n2)CC1 [Compound 512, [2-(4-Isopropyl-piperazin-1-ylmethyl)-7-(3-trifluoromethyl-pyridin-2-yl)-quinazolin-4-yl]-(4-trifluoromethyl-phenyl)-amine]
COCCN1CCN(Cc2nc(Nc3ccc(C(F)(F)F)cc3)c3ccc(-c4ncccc4C(F)(F)F)cc3n2)CC1 [Compound 514, [2-[4-(2-Methoxy-ethyl)-piperazin-1-ylmethyl]-7-(3-trifluoromethyl-pyridin-2-yl)-quinazolin-4-yl]-(4-trifluoromethyl-phenyl)-amine]
CN(C)CCN1CCN(Cc2nc(Nc3ccc(C(F)(F)F)cc3)c3ccc(-c4ncccc4C(F)(F)F)cc3n2)CC1 [Compound 515, [2-[4-(2-Dimethylamino-ethyl)-piperazin-1-ylmethyl]-7-(3-trifluoromethyl-pyridin-2-yl)-quinazolin-4-yl]-(4-trifluoromethyl-phenyl)-amine]
FC(F)(F)c1ccc(Nc2nc(CN3CCN(CCN4CCCC4)CC3)nc3cc(-c4ncccc4C(F)(F)F)ccc23)cc1 [Compound 517, [2-[4-(Pyrrolidin-1-yl-ethyl)-piperazin-1-ylmethyl]-7-(3-trifluoromethyl-pyridin-2-yl)-quinazolin-4-yl]-(4-trifluoromethyl-phenyl)-amine]
FC(F)(F)c1ccc(Nc2nc(CN3CCN(CCN4CCOCC4)CC3)nc3cc(-c4ncccc4C(F)(F)F)ccc23)cc1 [Compound 518, [2-[4-(2-Morpholin-4-yl-ethyl)-piperazin-1-ylmethyl]-7-(3-trifluoromethyl-pyridin-2-yl)-quinazolin-4-yl]-(4-trifluoromethyl-phenyl)-amine]
CN(C)CCCN1CCN(Cc2nc(Nc3ccc(C(F)(F)F)cc3)c3ccc(-c4ncccc4C(F)(F)F)cc3n2)CC1 [Compound 519, [2-[4-(3-Dimethylamino-propyl)-piperazin-1-ylmethyl]-7-(3-trifluoromethyl-pyridin-2-yl)-quinazolin-4-yl]-(4-trifluoromethyl-phenyl)-amine]
COCCN(CCOC)Cc1nc(Nc2ccc(C(F)(F)F)cn2)c2ccc(-c3ncccc3C(F)(F)F)cc2n1 [Compound 521, [2-{[Bis-(2-methoxy-ethyl)-aminol]-methyl}-7-(3-trifluoromethyl-pyridin-2-yl)-quinazolin-4-yl]-(5-trifluoromethyl-pyridin-2-yl)-amine]
CN1CCN(Cc2nc(Nc3ccc(C(F)(F)F)cn3)c3ccc(-c4ncccc4C(F)(F)F)cc3n2)CC1 [Compound 522, [2-(4-Methyl-piperazin-1-ylmethyl)-7-(3-trifluoromethyl-pyridin-2-yl)-quinazolin-4-yl]-(5-trifluoromethyl-pyridin-2-yl)-amine]
CC(c1ccc(Nc2nc(CN3CCCCC3)nc3cc(-c4ncccc4C(F)(F)F)ccc23)cc1)C(F)(F)F (stereo not drawn) [Compound 523, [2-Piperidin-1-ylmethyl-7-(3-trifluoromethyl-pyridin-2-yl)-quinazolin-4-yI]-[4-(2,2,2-trifluoro-1-methyl-ethyl)-phenyl]-amine]
CC(c1ccc(Nc2nc(CN3CCOCC3)nc3cc(-c4ncccc4C(F)(F)F)ccc23)cc1)C(F)(F)F (stereo not drawn) [Compound 524, [2-Morpholin-4-ylmethyl-7-(3-trifluoromethyl-pyridin-2-yl)-quinazolin-4-yl]-[4-(2,2,2-trifluoro-1-methyl-ethyl)-phenyl]-amine]
CC1CN(Cc2nc(Nc3ccc(C(C)C(F)(F)F)cc3)c3ccc(-c4ncccc4C(F)(F)F)cc3n2)CC(C)O1 (stereo not drawn) [Compound 525, [2-(2,6-Dimethyl-morpholin-4-ylmethyl)-7-(3-trifluoromethyl-pyridin-2-yl)-quinazolin-4-yl]-[4-(2,2,2-trifluoro-1-methyl-ethyl)-phenyl]-amine]
CC(c1ccc(Nc2nc(CN3CCN(C)CC3)nc3cc(-c4ncccc4C(F)(F)F)ccc23)cc1)C(F)(F)F (stereo not drawn) [Compound 526, [2-(4-Methyl-piperazin-1-ylmethyl)-7-(3-trifluoromethyl-pyridin-2-yl)-quinazolin-4-yl]-[4-(2,2,2-trifluoro-1-methyl-ethyl)-phenyl]-amine]
COCCN(CCOC)Cc1nc(Nc2ccc(C(C)C(F)(F)F)cc2)c2ccc(-c3ncccc3C(F)(F)F)cc2n1 (stereo not drawn) [Compound 527, [2-{[Bis-(2-methoxy-ethyl)-amino]-methyl}-7-(3-trifluoromethyl-pyridin-2-yl)-quinazolin-4-yl]-[4-(2,2,2-trifluoro-1-methyl-ethyl)-phenyl]-amine]
CCNCc1nc(Nc2ccc(C(F)(F)F)cc2)c2ccc(-c3ncccc3C(F)(F)F)cc2n1 [Compound 531, [2-Ethylaminomethyl-7-(3-trifluoromethyl-pyridin-2-yl)-quinazolin-4-yl]-(4-trifluoromethyl-phenyl)-amine]
OCCNCc1nc(Nc2ccc(C(F)(F)F)cc2)c2ccc(-c3ncccc3C(F)(F)F)cc2n1 [Compound 534, 2-{[4-(4-Trifluoromethyl-phenylamino)-7-(3-trifluoromethyl-pyridin-2-yl)-quinazolin-2-ylmethyl]-amino}-ethanol]
COCCNCc1nc(Nc2ccc(C(F)(F)F)cc2)c2ccc(-c3ncccc3C(F)(F)F)cc2n1 [Compound 535, [2-[(2-Methoxy-ethylamino)-methyl]-7-(3-trifluoromethyl-pyridin-2-yl)-quinazolin-4-yl]-(4-trifluoromethyl-phenyl)-amine]
